Data published in patent US6448472B1, “Genetic and epigenetic manipulation of ABC transporters and ectophosphatases for the conference of hormone and herbicide resistance” (Board of Regents, The University of Texas System, priority 1999, dated 2002).
Read-outs that look alike come from different tables or passages of the source.

Tests used:
[1] = system: Arabidopsis thaliana plants; assay type: in vivo; settings: after 10-20 days
Protocol: Plant Growth: Arabidopsis seeds were sown in a solid germination media containing MS salts (Sigma Chemical, St. Louis, Mo.), 2% sucrose, 0.8% agar, and vitamins (Valvekens, D. et al., 1992, Proc. Natl. Acad. Sci. USA 85:5536-5540). For selection assays, one of the following, or a combination of both, Was added to media (cooled to less than 50° C. before adding) immediately prior to pouring into plates: cycloheximide at a final concentration of 500 ng/ml; α,β-methyleneadenosine 5′-diphosphate at a final concentration of 1 mM. Plant growth was measured by germination percentage after 10-20 days.
All other materials and methods were discussed above in Example 2.

[2] = system: Saccharomyces cerevisiae INVSC1 and YMR4; experiment: Yeast growth selection assay on plates and in liquid media (turbidity OD600); assay type: cell-based; settings: cycloheximide 500 ng/ml
Excerpt: Expression of AtPGP-1 in yeast: The AtPGP-1 cDNA (Arabidopsis thaliana MDR gene, accession #X61370) was subcloned into pVT101 downstream of the ADH promoter to create the AtPGP-1/pVT101 construct. AtPGP-1/pVT101 and pVT101 were transformed into Saccharomyces cerevisiae INVSC1 (genotype: MATα, his3-Δ1, leu2, trp1-289, ura3-52) and YMR4 (genotype: MATαhis3-11,15, leu2-3, 112ura3Δ5, can Res pho5, 3::ura3Δ1) by a PEG lithium acetate procedure (Eble, R., 1992, Biotechniques 13:18-20) and selected on uracil dropout medium.
Yeast Growth: Yeast were grown at 30° C. under conditions of constant selection for uracil auxotrophy. YNB (Bio101, Vista, Calif.) supplemented with CSM (uracil dropout) and 2% glucose was used to grow strains having pVT101 constructs. Cycloheximide (Sigma Chemical, St. Louis, Mo.) was added to liquid media or spread on solid media to achieve a final concentration of 500 ng/ml. Nigericin (Sigma Chemical, St. Louis, Mo.) was added to liquid media or spread on solid media to achieve a final concentration of 25 μg/ml. Yeast strains used in cycloheximide selection assays were always propagated in the presence of the cycloheximide on plates and then streaked onto new plates containing drug or no drug, such that induced resistance existed in each strain at the time of the start of the assay. For selection assays on plates, single colonies were streaked; for selection in liquid media 0.01 ml of saturated culture was added to fresh media containing the drug. The plates shown in figures were grown for 3-5 days before photographs were taken. Yeast selection assays in liquid media were quantitated by turbidity as measured by absorbance at OD600.

[3] = system: Arabidopsis thaliana plants; experiment: Arabidopsis germination selection assay of transgenic plants (Example 2); assay type: in vivo; settings: cycloheximide 250 ng/ml
Excerpt: Expression of apyrase and AtPGP-1 in plants: The expression of apyrase in plants is as described above in Example 1. Similar methods were employed to express AtPGP-1 in Arabidopsis thaliana plants with the following modifications. The AtPGP-1 coding region was subcloned into a pBIN vector lacking the GUS gene as described in Sidler, et al., 1998, The Plant Cell 10:1623-1636. This plasmid was then transformed into A. tumefaciens as described above, which was used to infect root calli to produce transgenic plants expressing AtPGP-1.
Plant growth: Arabidopsis thaliana seeds were sown in a solid germination media containing MS salt, 2% sucrose, 0.8% agar, and vitamins (Valvekens, D. et al., […], Proc. Natl. Acad. Sci. USA 85:5536-5540. For selection assays, cycloheximide was spread on the media to achieve a final concentration of 250 ng/ml. Plant growth was measured by germination percentage after 6-30 days.

[4] = system: S. cerevisiae yeast cells; experiment: Yeast growth in suspension with ATP and drug selection (turbidity); assay type: cell-based, Saccharomyces cerevisiae; settings: 100 mM ATP, 48 hours
Protocol: Cell lines: Cell lines were the same as those described above in Example 2 and 3. YMR4 MDR1 is the phosphatase mutant yeast strain overexpressing AtPGP-1; YMR4 pVT101 contains vector alone; INVSC MDR1 is the wild-type yeast strain overexpressing AtPGP-1; and INVSC pVT101 contains vector alone.
Selection in drug: To create drug resistant yeast strains, all four cell lines were grown up in the presence of 500 ng/ml of cycloheximide, and transferred to other cycloheximide containing plates after a period of four to six days. This transfer of cell lines and subculturing continued such that the yeast cells grew in the presence of cycloheximide for a period of at least a month.
Cells cultured in media alone: To create cell lines that had not been preselected for their ability to grow in drug, yeast strains were grown on plates containing YNB (Bio101, Vista, Calif.) without uracil (-URA) to maintain the presence of the vector (which supplies URA) without any drugs added.
Growth of cells in suspension for ATP and drug selection experiments: Cells were transferred into 5 ml YNB-URA liquid media for turbidity measurements. All cell lines (both non-drug selected and drug-selected) were grown in media with the addition of either nothing, 500 ng/ml cycloheximide, 100 mM ATP, or 500 ng/ml cycloheximide and 100 mM ATP. Turbidity readings were taken after 48 hours.

[5] = system: yeast mutant YMR4; experiment: Yeast growth in suspension, salvage pathway experiments (adenosine, phosphate); assay type: cell-based, Saccharomyces cerevisiae; settings: 72 hours; for effect of addition to the media on resistance to cycloheximide: YMR4 cells, 3 mM adenosine, potassium phosphate; for effect of addition on growth in drug: cells overexpressing AtPGP-1 grown in cycloheximide
Protocol: Growth of cell lines in suspension for salvage pathway experiments: All cell lines were grown in liquid media either containing drug (for the drug selected lines) or not containing drug (for the non-drug selected lines). When the cultures reached a turbidity of 1.00 as measured at a wavelength of 600 in a spectrophotometer (OD600=1.00), 10 μl of each culture was then removed and placed in either media with nothing added, 3 mM potassium phosphate; 3 mM adenosine; 9 mM potassium phosphate and 3 mM adenosine (for controls); potassium phosphate and cycloheximide; adenosine and cycloheximide; adenosine, cycloheximide, and potassium phosphate. Cell cultures were further grown for 72 hours, and their turbidity was determined by OD600 readings on a spectrophotometer.

[6] = YMR4 ecto-phosphatase deficient mutant (vector alone), nigericin 25 μg/ml
[7] = YMR4 expressing AtPGP-1, nigericin 25 μg/ml

SMILES: C[C@@H]1C[C@@H]([C@H](O)CC2CC(=O)NC(=O)C2)C(=O)[C@@H](C)C1 [cycloheximide]
- germination rate ([1]; AtPGP-1 overexpressing (MDR OE) plants): 50%
- germination rate ([1]; wild-type plants): 2%
- effect of AtPGP-1 on growth in the presence of drug ([2]; INVSC1 wild-type yeast with AtPGP-1): did not have any effect
- growth in the presence of drug ([2]; INVSC1 wild-type yeast): did grow
- growth in the presence of drug [2, 6]: did not grow
- growth in the presence of drug [2, 7]: enabled the yeast mutant to grow
- resistance of plants to the drug (germination) ([3]; plants over-expressing AtPGP-1): confer resistance
- resistance of plants to the drug (germination) ([3]; plants over-expressing apyrase): conference of resistance

SMILES: Nc1ncnc2c1ncn2[C@@H]1O[C@H](COP(=O)(O)OP(=O)(O)OP(=O)(O)O)[C@@H](O)[C@H]1O [ATP]
- growth in high levels of ATP ([4]; cells not previously selected in drug): able to grow
- growth in high levels of ATP ([4]; cells previously selected in cycloheximide, not overexpressing AtPGP-1): not able to grow

SMILES: Nc1ncnc2c1ncn2[C@@H]1O[C@H](CO)[C@@H](O)[C@H]1O [adenosine]
- effect of addition to the media on resistance to cycloheximide [5]: did not enhance resistance
- effect of addition on growth in drug [5]: slightly inhibitory

SMILES: Nc1ncnc2c1ncn2[C@@H]1O[C@H](COP(=O)(O)CP(=O)(O)O)[C@@H](O)[C@H]1O [phosphatase inhibitor, α,β-methyleneadenosine 5′-diphosphate]
- germination rate ([1]; AtPGP-1 overexpressing (MDR OE) plants, cycloheximide 500 ng/ml, phosphatase inhibitor 1 mM): 83%
- germination rate ([1]; wild-type plants, cycloheximide 500 ng/ml, phosphatase inhibitor 1 mM): 90%

SMILES: CO[C@@H]1C[C@@H](C[C@H]2CC[C@H](C)[C@H]([C@@H](C)C(=O)O)O2)O[C@]2(O[C@](C)([C@H]3CC[C@@](C)([C@@H]4O[C@@H]([C@H]5O[C@@](O)(CO)[C@H](C)C[C@@H]5C)C[C@@H]4C)O3)C[C@H]2C)[C@@H]1C [nigericin]
- growth in the presence of drug [2, 6]: reduced growth
- growth in the presence of drug [2, 7]: The same result was obtained

SMILES: CC(C)=CCNc1ncnc2nc[nH]c12 [N6-(2-isopentenyl) adenine]
- resistance of plants to the drug (germination) ([3]; plants over-expressing AtPGP-1): confer resistance
- resistance of plants to the drug (germination) ([3]; plants over-expressing apyrase): The same result was obtained

SMILES: O=P(O)(O)O [phosphate, potassium phosphate]
- effect of addition to the media on resistance to cycloheximide [5]: did not enhance resistance
- effect of addition on growth in drug [5]: slightly inhibitory
